Test results from PMC3089467 (Nucleic Acids Research, 2011).

Biological target: T1, HhaI DNA cytosine-5 methyltransferase (M.HhaI) (Haemophilus parahaemolyticus, UniProt P05102)
T1 sequence (P05102 1-327): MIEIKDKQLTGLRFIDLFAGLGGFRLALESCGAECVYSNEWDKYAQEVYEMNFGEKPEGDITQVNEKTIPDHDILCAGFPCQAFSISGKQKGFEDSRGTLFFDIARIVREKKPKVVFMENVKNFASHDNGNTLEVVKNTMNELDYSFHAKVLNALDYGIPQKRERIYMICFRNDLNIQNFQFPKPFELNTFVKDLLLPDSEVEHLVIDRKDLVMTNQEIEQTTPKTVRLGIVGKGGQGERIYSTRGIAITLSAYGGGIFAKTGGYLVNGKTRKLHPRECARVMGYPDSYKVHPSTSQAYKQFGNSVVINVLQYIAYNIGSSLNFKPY
Test: stopped-flow absorbance, ternary complex with DNA
Type: binding
Settings: 100 µM AdoHcy; cognate GCGC/GMGC duplex; pH 7.4, 25 °C

Nc1ncnc2c1ncn2[C@@H]1O[C@H](CSCC[C@H](N)C(=O)O)[C@@H](O)[C@H]1O [AdoHcy]
stopped-flow absorbance, ternary complex with DNA: The remaining signal is regained upon addition of AdoHcy to the preformed M.HhaI–DNA complex
